As usually defined, the Ki is the equilibrium dissociation constant of an inhibitor or competing ligand from its target. High values mean lower affinity, low ones higher affinity.

This passage reports Ki results from ChEMBL document CHEMBL1144155, “Synthesis of 3-alkyl naphthalenes as novel estrogen receptor ligands” (Bioorg Med Chem Lett, 2008).

One assay concerns the target T1, Estrogen receptor (Homo sapiens, UniProt P03372).
T1 sequence (P03372 whole entry): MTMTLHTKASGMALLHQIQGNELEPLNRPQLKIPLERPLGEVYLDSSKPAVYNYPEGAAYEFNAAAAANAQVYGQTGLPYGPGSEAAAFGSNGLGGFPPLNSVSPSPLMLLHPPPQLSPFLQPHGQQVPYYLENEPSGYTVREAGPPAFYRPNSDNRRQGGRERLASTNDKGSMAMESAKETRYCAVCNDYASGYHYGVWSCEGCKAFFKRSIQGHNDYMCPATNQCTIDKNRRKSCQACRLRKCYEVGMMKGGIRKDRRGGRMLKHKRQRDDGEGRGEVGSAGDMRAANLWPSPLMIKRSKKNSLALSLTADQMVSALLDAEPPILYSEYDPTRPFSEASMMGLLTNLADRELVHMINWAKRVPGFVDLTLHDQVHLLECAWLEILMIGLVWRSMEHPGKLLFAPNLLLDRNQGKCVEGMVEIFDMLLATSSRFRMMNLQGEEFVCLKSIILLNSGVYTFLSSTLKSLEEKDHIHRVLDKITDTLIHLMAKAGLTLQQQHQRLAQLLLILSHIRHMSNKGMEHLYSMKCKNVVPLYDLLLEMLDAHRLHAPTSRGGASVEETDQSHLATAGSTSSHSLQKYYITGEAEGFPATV

The target in another assay is Estrogen receptor beta (Homo sapiens, UniProt Q92731).
Sequence of Estrogen receptor beta (Q92731 whole entry): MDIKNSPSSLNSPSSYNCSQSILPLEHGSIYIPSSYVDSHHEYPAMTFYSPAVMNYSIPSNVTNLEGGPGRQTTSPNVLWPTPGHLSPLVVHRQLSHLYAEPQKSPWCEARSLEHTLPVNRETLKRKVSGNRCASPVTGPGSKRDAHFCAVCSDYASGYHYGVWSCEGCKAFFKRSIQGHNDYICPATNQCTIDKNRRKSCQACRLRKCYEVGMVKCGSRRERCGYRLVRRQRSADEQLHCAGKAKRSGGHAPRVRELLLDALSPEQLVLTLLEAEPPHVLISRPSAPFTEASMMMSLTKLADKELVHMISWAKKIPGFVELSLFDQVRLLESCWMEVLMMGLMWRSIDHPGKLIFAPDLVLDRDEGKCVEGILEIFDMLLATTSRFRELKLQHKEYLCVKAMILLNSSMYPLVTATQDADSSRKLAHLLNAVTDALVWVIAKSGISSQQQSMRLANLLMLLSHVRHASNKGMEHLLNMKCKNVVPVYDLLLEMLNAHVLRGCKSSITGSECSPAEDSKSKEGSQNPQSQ

For `CCCCc1cc2cc(O)ccc2c(Oc2ccc(/C=C/C(=O)O)cc2)c1-c1ccccc1`, the inhibition constant Ki at Estrogen receptor and on Estrogen receptor beta was 4 nM throughout.

Turning to `CCCCc1cc2ccccc2c(Oc2ccc(/C=C/C(=O)O)cc2)c1-c1ccc(F)cc1`, the values for the Ki on Estrogen receptor and at Estrogen receptor beta were 724 nM and 110 nM, respectively.

Turning to `CCCCCc1cc2cc(O)ccc2c(Oc2ccc(/C=C/C(=O)O)cc2)c1-c1ccccc1`, the Ki on Estrogen receptor came to 2 nM; on Estrogen receptor beta it was 3 nM.

In the case of `CCCCc1cc2ccccc2c(Oc2ccc(/C=C/C(=O)O)cc2)c1-c1ccc(O)cc1`, the inhibition constant (Ki) on Estrogen receptor came to 52 nM; on Estrogen receptor beta it was 48 nM.

Take `CC(C)Cc1cc2cc(O)ccc2c(Oc2ccc(/C=C/C(=O)O)cc2)c1-c1ccccc1`: the inhibitory constant (Ki) stood at 28 nM on Estrogen receptor and 22 nM at Estrogen receptor beta.

Regarding `CCCCc1cc2ccccc2c(Oc2ccc(/C=C/C(=O)O)cc2)c1-c1ccc(OC)cc1`, the Ki was 158 nM at Estrogen receptor and 162 nM at Estrogen receptor beta.

On to `O=C(O)/C=C/c1ccc(Oc2c(-c3ccccc3)c(C3CC3)cc3cc(O)ccc23)cc1`, for which the Ki was determined as 60 nM on Estrogen receptor and 16 nM on Estrogen receptor beta.

Regarding `CCCCCCCCc1cc2cc(O)ccc2c(Oc2ccc(/C=C/C(=O)O)cc2)c1-c1ccccc1`, the Ki on Estrogen receptor was determined as 55 nM; at Estrogen receptor beta, 30 nM.

With `COCc1cc2ccccc2c(Oc2ccc(/C=C/C(=O)O)cc2)c1-c1ccccc1`, the Ki at Estrogen receptor is 692 nM; on Estrogen receptor beta, 501 nM.

On to `CCCCc1cc2ccccc2c(Oc2ccc(/C=C/C(=O)O)cc2)c1-c1ccccc1`, for which the Ki on Estrogen receptor turned out to be 977 nM; at Estrogen receptor beta it was 170 nM.
